Key:
[1] = tested on: MEK; test: Cellular assay for MEK inhibition: ERK phosphorylation in C26 cells, pERK ELISA format (C26ELSA); format: cell-based; settings: inhibition of ERK phosphorylation, murine colon 26 (C26) carcinoma cells, one hour at 37° C.
Procedure: (§1) Cellular Assay for Measuring MEK Inhibition
(§2) MEK inhibitors were evaluated by determining their ability to inhibit phosphorylation of MAP kinase (ERK) in murine colon 26 (C26) carcinoma cells. Since ERK1 and ERK2 represent the only known substrates for MEK1and MEK2, the measurement of inhibition of ERK phosphorylation in cells provides direct read out of cellular MEK inhibition by the compounds of the invention. Detection of phosphorylation of ERK was carried out either by Western blot or ELISA format. Briefly, the assays involve treatment of exponentially growing C26 cells with varying concentrations of the test compound (or vehicle control) for one hour at 37° C. For Western blot assay, cells were rinsed free of compound/vehicle and lysed in a solution containing 70 mM NaCl, 50 mM glycerol phosphate, 10 mM HEPES, pH 7.4, 1% Triton X-100, 1 mM Na3VO4, 100 μM PMSF, 10 μM leupeptin and 10 μM pepstatin. Supernatants were then subjected to gel electrophoresis and hybridized to a primary antibody recognizing dually phosphorylated ERK1 and ERK2. To evaluate total MAPK levels, blots were subsequently ‘stripped’ and re-probed with a 1:1 mixture of polyclonal antibodies recognizing unphosphorylated ERK1 and ERK2. For pERK ELISA assay, pERK TiterZyme Enzyme immunometric Assay kits were acquired from Assay Designs, Inc (Ann Arbor, Mich.). […]

[2] = tested on: MEK; test: Cellular assay for MEK inhibition: ERK phosphorylation in C26 cells (C26CPA1); format: cell-based; settings: inhibition of ERK phosphorylation, murine colon 26 (C26) carcinoma cells, one hour at 37° C.
Procedure: as §1, §2

melting point [°C]	IC50 [1] [nM]	IC50 [2] [nM]	SMILES
78 to 80			C#Cc1ccc(Nc2c(C(C)=O)ccc(F)c2F)c(F)c1 [Example 10, 1-[2-(4-Ethynyl-2-fluoro-phenylamino)-3,4-difluoro-phenyl]-ethanone]
127		287	Cc1coc(C(=O)c2ccc(F)c(F)c2Nc2ccc(I)cc2F)n1 [Example 5, [3,4-Difluoro-2-(2-fluoro-4-iodo-phenylamino)-phenyl]-(4-methyl-oxazol-2-yl)-methanone]
166			C#Cc1ccc(Nc2c(C(=O)c3nccn3C)ccc(F)c2F)c(F)c1 [Example 4, [2-(4-Ethynyl-2-fluoro-phenylamino)-3,4-difluoro-phenyl]-(1-methyl-1H-imidazol-2-yl)-methanone]

Further lines, the compound ahead of its results:

SMILES	melting point [°C]	IC50 [1] [nM]	IC50 [2] [nM]
C#Cc1ccc(Nc2c(C(=O)c3ccccn3)ccc(F)c2F)c(F)c1 [Example 2, [2-(4-Ethynyl-2-fluoro-phenylamino)-3,4-difluoro-phenyl]-pyridin-2-yl-methanone]	109 to 111		
C#Cc1ccc(Nc2c(C(=O)c3nccs3)ccc(F)c2F)c(F)c1 [Example 3, [2-(4-Ethynyl-2-fluoro-phenylamino)-3,4-difluoro-phenyl]-thiazol-2-yl-methanone]	161		
O=C(CO)c1ccc(F)c(F)c1Nc1ccc(I)cc1F [Example 1, 1-[3,4-Difluoro-2-(2-fluoro-4-iodo-phenylamino)-phenyl]-2-hydroxy-ethanone]	128 to 128.5	20	6.5

Source: US20050059710A1, “Diphenylamino ketone derivatives as MEK inhibitors” (Pfizer Inc, priority 2003, published 2005)
